Measured values as given in patent publication US20250346576A1, “KCNT1 INHIBITORS COMPRISING A PYRAZOLE CORE AND METHODS OF USE” (PRAXIS PRECISION MEDICINES, INC., priority 2022, published 2025).

Key:
KCNT1 (KNa1.1, Slack) = target: T1, KCNT1 (KNa1.1, Slack) (Homo sapiens, UniProt Q5JUK3); assay: KCNT1 patch clamp assay (SyncroPatch 384PE, tetracycline inducible HEK-TREX cell line); assay type: cell-based; conditions: WT KCNT1, HEK-TREX cells, perforated patch, step from -80 mV to 0 mV, room temperature; read-out: WT (KCNT1 inhibition IC50)
T1 construct: expressed in transfected cells; host or cells: HEK-TREX (tetracycline inducible cell line)
T1 sequence (Q5JUK3 1-1230): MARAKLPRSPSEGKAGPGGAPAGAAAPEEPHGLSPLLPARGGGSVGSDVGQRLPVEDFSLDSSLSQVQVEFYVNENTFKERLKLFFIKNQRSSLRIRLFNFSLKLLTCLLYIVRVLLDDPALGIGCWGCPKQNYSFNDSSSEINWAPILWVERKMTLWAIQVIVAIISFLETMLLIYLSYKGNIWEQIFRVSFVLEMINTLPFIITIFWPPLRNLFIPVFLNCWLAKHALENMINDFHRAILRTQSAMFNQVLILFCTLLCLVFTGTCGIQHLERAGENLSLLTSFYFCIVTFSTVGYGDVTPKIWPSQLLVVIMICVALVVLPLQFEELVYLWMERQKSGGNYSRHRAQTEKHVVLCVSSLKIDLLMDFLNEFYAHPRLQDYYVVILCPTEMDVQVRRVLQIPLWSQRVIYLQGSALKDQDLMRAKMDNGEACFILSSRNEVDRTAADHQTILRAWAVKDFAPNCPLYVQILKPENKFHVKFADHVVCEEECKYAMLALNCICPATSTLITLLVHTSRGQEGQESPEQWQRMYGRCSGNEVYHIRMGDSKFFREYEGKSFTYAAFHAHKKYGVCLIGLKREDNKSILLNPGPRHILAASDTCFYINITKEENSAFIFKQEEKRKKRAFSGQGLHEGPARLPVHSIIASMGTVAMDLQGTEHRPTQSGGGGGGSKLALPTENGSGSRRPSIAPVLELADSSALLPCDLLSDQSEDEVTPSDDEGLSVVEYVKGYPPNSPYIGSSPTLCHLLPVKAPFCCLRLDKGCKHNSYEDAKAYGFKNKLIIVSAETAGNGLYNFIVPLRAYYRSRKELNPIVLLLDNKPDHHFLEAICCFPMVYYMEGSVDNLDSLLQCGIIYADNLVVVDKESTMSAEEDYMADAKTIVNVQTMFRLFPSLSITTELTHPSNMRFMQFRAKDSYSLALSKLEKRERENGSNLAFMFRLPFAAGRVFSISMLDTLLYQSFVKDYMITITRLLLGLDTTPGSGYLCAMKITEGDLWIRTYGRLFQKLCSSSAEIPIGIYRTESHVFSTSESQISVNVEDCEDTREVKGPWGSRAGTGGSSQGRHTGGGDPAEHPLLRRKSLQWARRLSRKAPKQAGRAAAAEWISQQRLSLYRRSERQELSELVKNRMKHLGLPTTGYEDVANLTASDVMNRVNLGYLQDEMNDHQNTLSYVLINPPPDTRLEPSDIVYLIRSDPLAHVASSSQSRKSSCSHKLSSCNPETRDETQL
Procedure: Inhibition of KCNT1 (KNa1.1, Slack) was evaluated using a tetracycline inducible cell line (HEK-TREX). Currents were recorded using the SyncroPatch 384PE automated, patch clamp system. Pulse generation and data collection were performed with PatchController384 V1.3.0 and DataController384 V1.2.1 (Nanion Technologies). The access resistance and apparent membrane capacitance were estimated using built-in protocols. Current was recorded in perforated patch mode (10 μM escin) from a population of cells. The cells were lifted, triturated, and resuspended at 800,000 cells/ml. The cells were allowed to recover in the cell hotel prior to experimentation. Currents were recorded at room temperature. The external solution contained the following (in mM): NaCl 105, NMDG 40, KCl 4, MgCl2 1, CaCl2 5, and HEPES 10 (pH=7.4, Osmolarity ˜300 mOsm). The extracellular solution was used as the wash, reference, and compound delivery solution. The internal solution contained the following (in mM): NaCl 70, KF 70, KCl 10, EGTA 5, HEPES 5, and Escin 0.01 (pH=7.2, Osmolarity ˜295 mOsm). Escin is made at a 5 mM stock in water, aliquoted, and stored at −20° C. The compound plate was created at 2× concentrated in the extracellular solution. The compound was diluted to 1:2 when added to the recording well. The amount of DMSO in the extracellular solution was held constant at the level used for the highest tested concentration. A holding potential of −80 mV with a 100 ms step to 0 mV was used. Mean current was measured during the step to 0 mV. […] The average mean current from 3 sweeps was calculated and the percent inhibition of each compound was calculated. The percent inhibition as a function of the compound concentration was fit with a Hill equation to derive IC50, slope, minimum parameters, and maximum parameters. If KCNT1 inhibition was less than 50% at the highest tested concentration or if an IC50 could not be calculated, then a percent inhibition was reported in place of the IC50.
In this table, “A” indicates IC50 of less than or equal to 1 μM; “B” indicates inhibition of between 1 μM to 20 μM; and “C” indicates inhibition of greater than or equal to 20 μM.

[1] = Log D assay (1-octanol/buffer shake flask, LC/MS/MS); assay type: physicochemical; conditions: 1-octanol/phosphate buffer; 1-octanol / 0.1 M phosphate buffer pH 7.4
Description: Log D: The Log D assay is a miniaturized 1-octanol/buffer shake flask method followed by LC/MS/MS analysis. It is typically measured by determining the partition of a compound between an organic solvent (1-octanol) and an aqueous buffer (0.1 M phosphate buffer, pH 7.4; Varied buffer pH can be set). Since log D is pH dependent, the pH of the aqueous phase is always specified and is commonly measured at pH 7.4, the physiological pH of body fluids. […] Correct the peak areas by dilution factors and embedded internal standard, and the ratio of the corrected peak areas will be used to calculate the results (Log D value). • 8) Use the QC samples to monitor the process Log D determination. • 9) Data Analysis: The Log D value for each compound is calculated by the following equation: […]

| SMILES | IC50 (KCNT1 (KNa1.1, Slack)) | logD at 1 h [1] |
| --- | --- | --- |
| Cn1nc(C(F)(F)F)cc1C(=O)NC(C)(C)c1cc(-c2ccnc(C(F)(F)F)c2)nn1C [Compound 1063, 1-methyl-N-(2-(1-methyl-3-(2-(trifluoromethyl)pyridin-4-yl)-1H-pyrazol-5-yl)propan-2-yl)-3-(trifluoromethyl)-1H-pyrazole-5-carboxamide] | ≤ 1000 nM | 3 |
| Cn1nc(C(F)(F)F)cc1C(=O)NC1(c2cc(-c3ccnc(C(F)(F)F)c3)nn2C)CCC1 [Compound 1064, 1-methyl-N-(1-(1-methyl-3-(2-(trifluoromethyl)pyridin-4-yl)-1H-pyrazol-5-yl)cyclobutyl)-3-(trifluoromethyl)-1H-pyrazole-5-carboxamide] | ≤ 1000 nM | 4.4 |
